Experimental data reported in patent publication US11014911B2, “CDK2 inhibitors” (Pfizer Inc., priority 2019, dated 2021).

Biological target: CDK2/Cyclin E1 full length (Homo sapiens (Human), UniProt P24941)
Assay: CDK2/Cyclin E1 full length mobility shift assay
Format: biochemical

SMILES	Ki [nM]
CC[C@H](C)NC(=O)O[C@@H]1CC[C@H](c2cc(NC(=O)Cc3cc(OC)ncc3OC)n[nH]2)C1 [Example 358, (1R,3S)-3-(3-{[(2,5-dimethoxypyridin-4-yl)acetyl]amino}-1H-pyrazol-5-yl)cyclopentyl (2S)-butan-2-ylcarbamate]	1.65
CC[C@H](C)NC(=O)O[C@@H]1CC[C@H](c2cc(NC(=O)Cc3nnc(C)o3)n[nH]2)C1 [Example 334, (1R,3S)-3-(3-{[(5-methyl-1,3,4-oxadiazol-2-yl)acetyl]amino}-1H-pyrazol-5-yl)cyclopentyl (2S)-butan-2-ylcarbamate]	1.6
COc1cnc(CC(=O)Nc2cc([C@H]3CC[C@@H](OC(=O)NC(C)CC(F)(F)F)C3)[nH]n2)cn1 (single isomer, unassigned) [Example 67]	1.5
CC(C)(O)CNC(=O)O[C@@H]1CC[C@H](c2cc(NC(=O)Cc3cc(F)cc(F)c3)n[nH]2)C1 [Example 574, (1R,3S)-3-(3-{[(3,5-difluorophenyl)acetyl]amino}-1H-pyrazol-5-yl)cyclopentyl (2-hydroxy-2-methylpropyl)carbamate]	4.07
CC[C@H](C)NC(=O)O[C@@H]1CC[C@H](c2cc(NC(=O)Cc3cn4cccnc4n3)n[nH]2)C1 [Example 354, (1R,3S)-3-{3-[(imidazo[1,2-a]pyrimidin-2-ylacetyl)amino]-1H-pyrazol-5-yl}cyclopentyl (2S)-butan-2-ylcarbamate]	3.74
CCCNC(=O)O[C@@H]1CC[C@H](c2cc(NC(=O)Cc3ccccc3S(C)(=N)=O)n[nH]2)C1 (single isomer, unassigned) [Example 202]	1.85
CCCNC(=O)O[C@@H]1CC[C@H](c2cc(NC(=O)Cc3ccccc3S(=O)(=O)NC)n[nH]2)C1 [Example 209, (1R,3S)-3-[3-({[2-(methylsulfamoyl)-phenyl]acetyl}amino)-1H-pyrazol-5-yl]cyclopentyl propylcarbamate]	1.21
Cc1cc(CC(=O)Nc2cc([C@H]3CC[C@@H](OC(=O)N[C@H](C)C4CC4)C3)[nH]n2)on1 [Example 469, (1R,3S)-3-(3-{[(3-methyl-1,2-oxazol-5-yl)acetyl]amino}-1H-pyrazol-5-yl)cyclopentyl [(1R)-1-cyclopropylethyl]carbamate]	0.31
COCCn1nccc1C(=O)Nc1cc([C@H]2CC[C@@H](OC(=O)NC(C)CC(F)(F)F)C2)[nH]n1 (single isomer, unassigned) [Example 87]	1.32
CC1(NC(=O)O[C@@H]2CC[C@H](c3cc(NC(=O)Cc4cscn4)n[nH]3)C2)CC1 [Example 423, (1R,3S)-3-{3-[(1,3-thiazol-4-ylacetyl)amino]-1H-pyrazol-5-yl}cyclopentyl (1-methylcyclopropyl)carbamate]	0.6
Cn1ncc(CC(=O)Nc2cc([C@H]3CC[C@@H](OC(=O)NC(C)(C)C)C3)[nH]n2)n1 [Example 110]	0.29
CC(C)(C)NC(=O)O[C@@H]1CC[C@H](c2cc(NC(=O)Cc3ccc(Cl)cn3)n[nH]2)C1 [Example 310, (1R,3S)-3-(3-{[(5-chloropyridin-2-yl)acetyl]amino}-1H-pyrazol-5-yl)cyclopentyl tert-butylcarbamate]	0.69
COc1cc(CC(=O)Nc2cc([C@H]3CC[C@@H](OC(=O)NC(C)C)C3)[nH]n2)c(OC)cn1 [Example 285, (1R,3S)-3-(3-{[(2,5-dimethoxypyridin-4-yl)acetyl]amino}-1H-pyrazol-5-yl)cyclopentyl propan-2-ylcarbamate]	3.97
CCCNC(=O)O[C@@H]1CC[C@H](c2cc(NC(=O)Cc3ccc(COC)cc3S(C)(=O)=O)[nH]n2)C1 [Example 215, (1R,3S)-3-[5-({[4-(methoxymethyl)-2-(methylsulfonyl)phenyl]acetyl}amino)-1H-pyrazol-3-yl]cyclopentyl propylcarbamate]	1.26
COc1cnc(CC(=O)Nc2cc([C@H]3CC[C@@H](OC(=O)N[C@H](C)C4CC4)C3)[nH]n2)cn1 [Example 472, (1R,3S)-3-(3-{[(5-methoxypyrazin-2-yl)acetyl]amino}-1H-pyrazol-5-yl)cyclopentyl [(1R)-1-cyclopropylethyl]carbamate]	1.17
O=C(Cc1cc(F)cc(F)c1)Nc1cc([C@@H]2CC[C@H](OC(=O)NC[C@H]3C[C@@H](O)C3)C2)[nH]n1 [Example 575, (1S,3R)-3-(3-{[(3,5-difluorophenyl)acetyl]amino}-1H-pyrazol-5-yl)cyclopentyl [(cis-3-hydroxycyclobutyl)methyl] carbamate]	2.28
COc1ccc(CC(=O)Nc2cc([C@H]3CC[C@@H](OC(=O)N[C@H]4CC[C@](C)(O)CC4)C3)[nH]n2)cc1 [Example 567, (1R,3S)-3-(3-{[(4-methoxyphenyl)acetyl]amino}-1H-pyrazol-5-yl)cyclopentyl (trans-4-hydroxy-4-methylcyclohexyl)carbamate]	1.61
COc1ccc(CC(=O)Nc2cc([C@@H]3CC[C@H](OC(=O)N[C@H]4CC[C@H](O)CC4)C3)[nH]n2)cn1 [Example 556, (1S,3R)-3-(3-{[(6-methoxypyridin-3-yl)acetyl]amino}-1H-pyrazol-5-yl)cyclopentyl (trans-4-hydroxycyclohexyl)carbamate]	0.46

SMILES	Ki [nM]
Cc1ncc(CC(=O)Nc2cc([C@@H]3CC[C@H](OC(=O)NC4CCOCC4)C3)[nH]n2)s1 [Example 500, (1S,3R)-3-(3-{[(2-methyl-1,3-thiazol-5-yl)acetyl]amino}-1H-pyrazol-5-yl)cyclopentyl tetrahydro-2H-pyran-4-ylcarbamate]	2.36
COc1ccc(S(C)(=O)=O)c(CC(=O)Nc2cc([C@H]3CC[C@@H](OC(=O)NC(C)C(F)(F)F)C3)[nH]n2)c1 (single isomer, unassigned) [Example 292]	0.86
C[C@H]1CCN1C(=O)O[C@@H]1CC[C@H](c2cc(NC(=O)c3ccnn3CCN(C)C)n[nH]2)C1 [Example 596, (1R,3S)-3-{3-[({1-[2-(dimethylamino)ethyl]-1H-pyrazol-5-yl}carbonyl)amino]-1H-pyrazol-5-yl}cyclopentyl (2S)-2-methylazetidine-1-carboxylate]	1.75
Cc1nnc(CC(=O)Nc2cc([C@H]3CC[C@@H](OC(=O)NC4(C)CCC4)C3)[nH]n2)o1 [Example 459, (1R,3S)-3-(3-{[(5-methyl-1,3,4-oxadiazol-2-yl)acetyl]amino}-1H-pyrazol-5-yl)cyclopentyl (1-methylcyclobutyl)carbamate]	0.32
CC(C)(C)NC(=O)O[C@@H]1CC[C@H](c2cc(NC(=O)Cc3ncccc3F)n[nH]2)C1 [Example 301, (1R,3S)-3-(3-{[(3-fluoropyridin-2-yl)acetyl]amino}-1H-pyrazol-5-yl)cyclopentyl tert-butylcarbamate]	0.55
CCCNC(=O)O[C@@H]1CC[C@H](c2cc(NC(=O)Cc3ccccc3S(C)(=N)=O)n[nH]2)C1 (single isomer, unassigned) [Example 201]	1.91
CCCNC(=O)O[C@H]1CC[C@@H](c2cc(NC(=O)Cc3cn4c(C)c(C)sc4n3)n[nH]2)C1 [Example 200, (1S,3R)-3-(3-{[(2,3-dimethylimidazo[2,1-b][1,3]thiazol-6-yl)acetyl]amino}-1H-pyrazol-5-yl)cyclopentyl propylcarbamate]	2.87
CCNC(=O)O[C@@H]1CC[C@H](c2cc(NC(=O)Cc3cccc4ncsc34)n[nH]2)C1 [Example 235, (1R,3S)-3-{3-[(1,3-benzothiazol-7-ylacetyl)amino]-1H-pyrazol-5-yl}cyclopentyl ethylcarbamate]	2.33
COc1ccc(CC(=O)Nc2cc([C@H]3CC[C@@H](OC(=O)NC4CCOCC4)C3)[nH]n2)cc1 [Example 502, (1R,3S)-3-(3-{[(4-methoxyphenyl)acetyl]amino}-1H-pyrazol-5-yl)cyclopentyl tetrahydro-2H-pyran-4-ylcarbamate]	3.71
COc1cc(CC(=O)Nc2cc([C@@H]3CC[C@H](OC(=O)NC[C@@H]4CCCO4)C3)[nH]n2)ccn1 [Example 497, (1S,3R)-3-(3-{[(2-methoxypyridin-4-yl)acetyl]amino}-1H-pyrazol-5-yl)cyclopentyl [(2S)-tetrahydrofuran-2-ylmethyl]carbamate]	4.38
CC(=O)N1CCC(CNC(=O)O[C@H]2CC[C@@H](c3cc(NC(=O)Cc4cc(F)cc(F)c4)n[nH]3)C2)CC1 [Example 582, (1S,3R)-3-(3-{[(3,5-difluorophenyl)acetyl]amino}-1H-pyrazol-5-yl)cyclopentyl [(1-acetylpiperidin-4-yl)methyl]carbamate]	2.23
CC(C)(C)NC(=O)O[C@@H]1CC[C@H](c2cc(NC(=O)Cc3cnn(CC(F)(F)F)n3)n[nH]2)C1 [Example 318, (1R,3S)-3-[3-({[2-(2,2,2-trifluoroethyl)-2H-1,2,3-triazol-4-yl]acetyl}amino)-1H-pyrazol-5-yl]cyclopentyl tert-butylcarbamate]	0.53
CC(C)(C)NC(=O)O[C@@H]1CC[C@H](c2cc(NC(=O)Cc3coc(C4CC4)n3)n[nH]2)C1 [Example 306, (1R,3S)-3-(3-{[(2-cyclopropyl-1,3-oxazol-4-yl)acetyl]amino}-1H-pyrazol-5-yl)cyclopentyl tert-butylcarbamate]	1.09
Cc1cn(CC(=O)Nc2cc([C@H]3CC[C@@H](OC(=O)NC(C)(C)C)C3)[nH]n2)nn1 [Example 297, (1R,3S)-3-(3-{[(4-methyl-1H-1,2,3-triazol-1-yl)acetyl]amino}-1H-pyrazol-5-yl)cyclopentyl tert-butylcarbamate]	1.17
COc1cc(C(=O)Nc2cc([C@H]3CC[C@@H](OC(=O)NC(C)(C)C)C3)[nH]n2)n(C)n1 [Example 302, (1R,3S)-3-(3-{[(3-methoxy-1-methyl-1H-pyrazol-5-yl)carbonyl]amino}-1H-pyrazol-5-yl)cyclopentyl tert-butylcarbamate]	0.5
COc1ccc(CC(=O)Nc2cc([C@H]3CC[C@@H](OC(=O)N4C[C@@H](C#N)[C@@H]4C)C3)[nH]n2)cn1 (single isomer, unassigned) [Example 157]	1.86
CC[C@H](C)NC(=O)O[C@@H]1CC[C@H](c2cc(NC(=O)Cc3cncc(C(F)(F)F)n3)n[nH]2)C1 [Example 362, (1R,3S)-3-[3-({[6-(trifluoromethyl)pyrazin-2-yl]acetyl}amino)-1H-pyrazol-5-yl]cyclopentyl (2S)-butan-2-ylcarbamate]	0.84
